Earlier results, collected in patent publication US20230055121A1, “AQUEOUS SUSPENSION COMPOSITION CONTAINING SIROLIMUS OR SALT THEREOF” (SANTEN PHARMACEUTICAL CO., LTD., priority 2019, published 2023).

Sirolimus
Solubility in water: almost insoluble in water
